Reference: the NIST ThermoML archive (doi:10.1016/j.jct.2013.10.031)

Assay: wn = mass fraction of the nth substance listed
Conditions: Gas, Burnett expansion method

FCC(F)(F)F [1,1,1,2-tetrafluoroethane] + CCC
Conditions	mass density [kg/m3]
291.04 K, 382.5 kPa, w2 = 0.6	9.6512
291.04 K, 497.9 kPa, w2 = 0.6	12.8332
291.04 K, 818.1 kPa, w2 = 0.6	22.6914
291.06 K, 178.7 kPa, w2 = 0.65	4.1993
291.06 K, 235.4 kPa, w2 = 0.65	5.5839
291.06 K, 309.1 kPa, w2 = 0.65	7.425
291.06 K, 404.2 kPa, w2 = 0.65	9.8733
291.06 K, 525 kPa, w2 = 0.65	13.1287
291.06 K, 642.6 kPa, w2 = 0.6	17.0639
291.08 K, 675.9 kPa, w2 = 0.65	17.4564
291.99 K, 927 kPa, w2 = 0.5	28.4165
292 K, 732.8 kPa, w2 = 0.5	21.3324
292.01 K, 193.1 kPa, w2 = 0.5	5.0866
292.01 K, 254.3 kPa, w2 = 0.5	6.7756
292.01 K, 334.3 kPa, w2 = 0.5	9.02529
292.01 K, 437.9 kPa, w2 = 0.5	12.0223
292.01 K, 569.6 kPa, w2 = 0.5	16.0141
292.03 K, 202.8 kPa, w2 = 0.4	5.83306
292.03 K, 587.9 kPa, w2 = 0.4	18.3639
292.03 K, 753.1 kPa, w2 = 0.4	24.4617
292.03 K, 950.3 kPa, w2 = 0.4	32.5844
292.04 K, 266.5 kPa, w2 = 0.4	7.76977
292.04 K, 348.8 kPa, w2 = 0.4	10.3497
292.04 K, 454.4 kPa, w2 = 0.4	13.7862
292.1 K, 669.6 kPa, w2 = 0.45	20.2125
292.1 K, 852.9 kPa, w2 = 0.45	26.9241
292.11 K, 399.4 kPa, w2 = 0.45	11.3911
292.11 K, 519.4 kPa, w2 = 0.45	15.1737
292.12 K, 176.3 kPa, w2 = 0.45	4.81956
292.12 K, 232.3 kPa, w2 = 0.45	6.41979
292.12 K, 305.2 kPa, w2 = 0.45	8.55159
295.06 K, 496 kPa, w2 = 0.6	12.529
295.06 K, 537 kPa, w2 = 0.55	14.2738
295.06 K, 692.2 kPa, w2 = 0.55	18.98
295.06 K, 881.4 kPa, w2 = 0.55	25.2378
295.07 K, 315.8 kPa, w2 = 0.55	8.0723
295.07 K, 641.4 kPa, w2 = 0.6	16.6596
295.07 K, 820 kPa, w2 = 0.6	22.1527
295.08 K, 167 kPa, w2 = 0.6	4.0072
295.08 K, 220.6 kPa, w2 = 0.6	5.3286
295.08 K, 240.3 kPa, w2 = 0.55	6.0706
295.08 K, 380.5 kPa, w2 = 0.6	9.4217
295.08 K, 413.2 kPa, w2 = 0.55	10.7336
295.08 K, 929.7 kPa, w2 = 0.65	25.1362
295.09 K, 290.3 kPa, w2 = 0.6	7.0853
295.09 K, 571.2 kPa, w2 = 0.65	14.2158
295.09 K, 733.9 kPa, w2 = 0.65	18.9032
295.1 K, 440.4 kPa, w2 = 0.65	10.6904
295.11 K, 337.1 kPa, w2 = 0.65	8.0394
295.12 K, 195 kPa, w2 = 0.65	4.5466
295.12 K, 256.9 kPa, w2 = 0.65	6.0457
296.03 K, 914.3 kPa, w2 = 0.45	28.6491
296.04 K, 429.5 kPa, w2 = 0.45	12.1212
296.04 K, 558.2 kPa, w2 = 0.45	16.146
296.04 K, 718.9 kPa, w2 = 0.45	21.5073
296.05 K, 189.8 kPa, w2 = 0.45	5.12847
296.05 K, 250.1 kPa, w2 = 0.45	6.83136
296.05 K, 328.4 kPa, w2 = 0.45	9.09958
296.06 K, 874.4 kPa, w2 = 0.5	25.9625
296.07 K, 179.9 kPa, w2 = 0.5	4.64758
296.07 K, 236.8 kPa, w2 = 0.5	6.1908
296.07 K, 407 kPa, w2 = 0.5	10.9846
296.07 K, 529.9 kPa, w2 = 0.5	14.6321
296.07 K, 684.5 kPa, w2 = 0.5	19.4905
296.15 K, 854.3 kPa, w2 = 0.4	27.6875
296.15 K, 1071.2 kPa, w2 = 0.4	36.8808
296.16 K, 518.5 kPa, w2 = 0.4	15.6041
296.16 K, 669.4 kPa, w2 = 0.4	20.7854
296.17 K, 231.5 kPa, w2 = 0.4	6.60203
296.17 K, 304.4 kPa, w2 = 0.4	8.79413
296.17 K, 398.4 kPa, w2 = 0.4	11.7141
297.08 K, 311 kPa, w2 = 0.5	8.24631
299.03 K, 1039.9 kPa, w2 = 0.55	30.269
299.04 K, 190.4 kPa, w2 = 0.6	4.5212
299.04 K, 220.4 kPa, w2 = 0.55	5.4755
299.04 K, 251 kPa, w2 = 0.6	6.0118
299.04 K, 290.2 kPa, w2 = 0.55	7.2808
299.04 K, 330.1 kPa, w2 = 0.6	7.994
299.04 K, 380.6 kPa, w2 = 0.55	9.6815
299.04 K, 432.1 kPa, w2 = 0.6	10.6297
299.04 K, 496.4 kPa, w2 = 0.55	12.8736
299.04 K, 561.9 kPa, w2 = 0.6	14.1346
299.04 K, 724.4 kPa, w2 = 0.6	18.7949
299.04 K, 824.2 kPa, w2 = 0.55	22.7626
299.05 K, 180.8 kPa, w2 = 0.65	4.1345
299.05 K, 238.4 kPa, w2 = 0.65	5.4977
299.05 K, 313.5 kPa, w2 = 0.65	7.3105
299.05 K, 410.5 kPa, w2 = 0.65	9.7208
299.05 K, 534.3 kPa, w2 = 0.65	12.9262
299.05 K, 642.9 kPa, w2 = 0.55	17.1183
299.06 K, 689.6 kPa, w2 = 0.65	17.1876
299.06 K, 880.4 kPa, w2 = 0.65	22.8543
299.06 K, 922.6 kPa, w2 = 0.6	24.9906
299.92 K, 198.1 kPa, w2 = 0.5	5.06523
299.92 K, 261.1 kPa, w2 = 0.5	6.74709
299.92 K, 343.5 kPa, w2 = 0.5	8.9873
299.92 K, 449.9 kPa, w2 = 0.5	11.9714
299.92 K, 585.2 kPa, w2 = 0.5	15.9465
299.92 K, 754.7 kPa, w2 = 0.5	21.2412
299.93 K, 961.3 kPa, w2 = 0.5	28.294
300.04 K, 162.1 kPa, w2 = 0.4	4.47962
300.04 K, 213.8 kPa, w2 = 0.4	5.96699
300.04 K, 369.1 kPa, w2 = 0.4	10.5874
300.04 K, 481.6 kPa, w2 = 0.4	14.1031
300.04 K, 624.3 kPa, w2 = 0.4	18.786
300.04 K, 801.2 kPa, w2 = 0.4	25.0237
300.04 K, 1014.7 kPa, w2 = 0.4	33.3323
300.05 K, 281.4 kPa, w2 = 0.4	7.94819
300.28 K, 1155.2 kPa, w2 = 0.45	37.6831
300.3 K, 250.1 kPa, w2 = 0.45	6.74559
300.3 K, 328.7 kPa, w2 = 0.45	8.98533
300.3 K, 430.2 kPa, w2 = 0.45	11.9689
300.3 K, 560 kPa, w2 = 0.45	15.9432
300.3 K, 722.6 kPa, w2 = 0.45	21.2369
300.3 K, 921.7 kPa, w2 = 0.45	28.2885
303 K, 206 kPa, w2 = 0.65	4.6675
303 K, 271.6 kPa, w2 = 0.65	6.2064
303 K, 356.7 kPa, w2 = 0.65	8.2528
303 K, 466.3 kPa, w2 = 0.65	10.974
303 K, 605.7 kPa, w2 = 0.65	14.5921
303.01 K, 228 kPa, w2 = 0.55	5.5856
303.01 K, 513.7 kPa, w2 = 0.55	13.1325
303.01 K, 665.4 kPa, w2 = 0.55	17.4628
303.01 K, 780 kPa, w2 = 0.65	19.4028
303.01 K, 853.2 kPa, w2 = 0.55	23.2201
303.02 K, 300.2 kPa, w2 = 0.55	7.4272
303.02 K, 393.7 kPa, w2 = 0.55	9.876
303.02 K, 1078.8 kPa, w2 = 0.55	30.8763
303.03 K, 991 kPa, w2 = 0.65	25.7988
303.1 K, 231.6 kPa, w2 = 0.6	5.4683
303.1 K, 304.9 kPa, w2 = 0.6	7.2713
303.1 K, 399.8 kPa, w2 = 0.6	9.6687
303.1 K, 521.7 kPa, w2 = 0.6	12.8566
303.1 K, 675.5 kPa, w2 = 0.6	17.0956
303.1 K, 865.6 kPa, w2 = 0.6	22.7325
303.11 K, 1092.1 kPa, w2 = 0.6	30.2268
304.1 K, 860.4 kPa, w2 = 0.4	26.6525
304.1 K, 1087.7 kPa, w2 = 0.4	35.5024
304.11 K, 174.8 kPa, w2 = 0.4	4.77108
304.11 K, 397.4 kPa, w2 = 0.4	11.2764
304.11 K, 518.4 kPa, w2 = 0.4	15.0206
304.11 K, 671.1 kPa, w2 = 0.4	20.0084
304.12 K, 230.5 kPa, w2 = 0.4	6.35521
304.12 K, 303.2 kPa, w2 = 0.4	8.46542
304.18 K, 860.4 kPa, w2 = 0.5	24.4745
304.19 K, 302.4 kPa, w2 = 0.5	7.77376
304.19 K, 396.5 kPa, w2 = 0.5	10.3551
304.19 K, 517.4 kPa, w2 = 0.5	13.7935
304.19 K, 670.5 kPa, w2 = 0.5	18.3734
304.19 K, 1088.7 kPa, w2 = 0.5	32.6005
304.23 K, 1142.8 kPa, w2 = 0.45	36.7316
304.24 K, 907.2 kPa, w2 = 0.45	27.5748
304.25 K, 248 kPa, w2 = 0.45	6.57513
